The source of these data is patent US8119633B2, “Substituted sulfonamide compounds” (Gruenenthal GmbH, priority 2007, dated 2012).

SMILES strings stand for the structures.

For one test, the target named is T1, human μ-opiate receptor (Homo sapiens, UniProt P35372).
T1 construct: purchased PerkinElmer Life Sciences, Zaventem, Belgium RB-HOM; host or cells: CHO-K1 cells (membrane preparation)
Description: Affinity for the human μ-opiate receptor ([3H]-naloxone displacement, SPA). Conditions: test substance 1 μmol/l, inhibition of specific [3H]-naloxone binding, CHO-K1 receptor membrane preparation; for inhibition at 1 µM: read-out: μ-Opioid receptor [1 μM] % inhibition. The essentials: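 Membranes from CHO-K1 cells expressing human μ-opiate receptor were incubated 90 min at room temperature with 1 nmol/l [3H]-naloxone and WGA-SPA beads in 50 mmol/l Tris-HCl with 0.06% BSA; non-specific binding was defined with 100 μmol/l naloxone. Percent inhibition was measured at 1 μmol/l, IC50 was derived from concentration series, and Ki was obtained by Cheng-Prusoff.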

The target of test [1] is T2, human bradykinin receptor 1 (B1R) (Homo sapiens, UniProt P46663).
T2 construct: expressed in transfected cells; host or cells: CHO K1 cells
T2 sequence (P46663 1-353): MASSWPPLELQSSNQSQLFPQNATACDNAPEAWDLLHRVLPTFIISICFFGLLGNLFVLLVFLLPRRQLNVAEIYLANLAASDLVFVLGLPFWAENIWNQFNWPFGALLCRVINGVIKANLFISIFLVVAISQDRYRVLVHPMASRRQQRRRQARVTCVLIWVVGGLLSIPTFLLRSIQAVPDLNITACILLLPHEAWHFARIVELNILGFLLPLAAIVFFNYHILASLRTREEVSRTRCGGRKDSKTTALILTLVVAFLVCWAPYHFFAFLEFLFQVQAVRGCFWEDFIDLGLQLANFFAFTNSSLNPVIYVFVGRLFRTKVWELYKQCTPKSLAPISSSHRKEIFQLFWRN
Description: Functional study on the bradykinin receptor 1 (B1R), human: FLIPR Ca2+ influx assay. It counts as cell-based. Conditions: test substance 10 μM, CHO K1 cells transfected with human B1R, Lys-Des-Arg9-bradykinin at EC80, Ca2+ influx (Fluo-4, FLIPR); for inhibition at 10 µM: read-out: B1R antagonism, human [10 μM] % inhibition. The gist of the method:
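CHO K1 cells stably expressing human B1R were loaded with Fluo-4, and Ca2+ fluorescence was read on FLIPR (ex 488/em 540 nm). Compound was added first (10 μM for % activation against Lys-Des-Arg9-bradykinin ≥0.5 nM). After 10-20 min, Lys-Des-Arg9-bradykinin was added at EC80 for % inhibition; IC50 came from concentration series, n=2-3, N≥2.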

Test [2] concerns the target T3, bradykinin receptor 1 (B1R) of the rat (Rattus norvegicus, UniProt P97583).
T3 construct: expressed in transfected cells; host or cells: CHO K1 cells
T3 sequence (P97583 1-337): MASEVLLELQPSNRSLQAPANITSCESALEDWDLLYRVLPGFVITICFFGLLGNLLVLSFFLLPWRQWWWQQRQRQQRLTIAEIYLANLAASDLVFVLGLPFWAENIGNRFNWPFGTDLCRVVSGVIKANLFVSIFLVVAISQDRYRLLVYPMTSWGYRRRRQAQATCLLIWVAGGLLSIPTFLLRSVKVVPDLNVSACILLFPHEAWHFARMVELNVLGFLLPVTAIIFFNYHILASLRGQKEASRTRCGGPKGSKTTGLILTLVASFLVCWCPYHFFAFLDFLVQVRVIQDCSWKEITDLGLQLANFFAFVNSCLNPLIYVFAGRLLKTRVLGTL
Description: Functional study on the bradykinin receptor 1 (B1R), rat: FLIPR Ca2+ influx assay. It counts as cell-based. Conditions: test substance 10 μM, CHO K1 cells transfected with rat B1R, Des-Arg9-bradykinin at EC80, Ca2+ influx (Fluo-4, FLIPR); for inhibition at 10 µM: read-out: B1R antagonism, rat [10 μM] % inhibition. The essentials:
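CHO K1 cells stably expressing rat B1R, Fluo-4-loaded, read on FLIPR (ex 488/em 540 nm, peak fluorescence). Test substances added first (agonism vs 10 μM Des-Arg9-bradykinin), then after 10-20 min Des-Arg9-bradykinin at EC80; % inhibition and IC50 from concentration series, n=2-3, N≥2.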

For orientation: inhibition means the drop in the measured response relative to a control, in per cent.

T1 sequence (P35372 whole entry): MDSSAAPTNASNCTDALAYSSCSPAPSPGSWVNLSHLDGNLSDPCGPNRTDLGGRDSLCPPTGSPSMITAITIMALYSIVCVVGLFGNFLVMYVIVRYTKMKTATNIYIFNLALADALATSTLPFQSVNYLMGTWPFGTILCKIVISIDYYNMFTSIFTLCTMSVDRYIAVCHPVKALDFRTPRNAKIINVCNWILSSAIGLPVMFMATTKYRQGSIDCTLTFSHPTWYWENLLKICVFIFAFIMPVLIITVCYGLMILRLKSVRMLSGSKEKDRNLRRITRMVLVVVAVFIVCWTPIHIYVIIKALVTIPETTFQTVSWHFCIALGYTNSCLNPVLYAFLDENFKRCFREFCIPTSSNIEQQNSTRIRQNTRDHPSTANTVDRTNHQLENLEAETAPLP

Regarding `O=C(CC1C(=O)Nc2ccccc2N1S(=O)(=O)c1ccc(Cl)c(Cl)c1)NC1CCC(C(CCc2ccccc2)N2CCCCC2)CC1` (stereo not drawn) [Example 68, 2-[1-(3,4-dichloro-benzenesulfonyl)-3-oxo-1,2,3,4-tetrahydro-quinoxalin-2-yl]-N-[4-(3-phenyl-1-piperidin-1-yl-propyl)-cyclohexyl]-acetamide], the inhibition at 1 µM on human μ-opiate receptor was determined as 30%. Further, the results for the inhibition at 10 µM in test [1] and in test [2] were 104% and 37%, respectively.

With `COc1cc(C)c(S(=O)(=O)N(C)CCCNC(=O)NCC2CCC(C(c3ccccc3)N(C)C)CC2)c(C)c1C` (stereo not drawn) [Example 2], the “μ-Opioid receptor [1 μM] % inhibition” value on human μ-opiate receptor came to 97%. Also, in test [1], the “B1R antagonism, human [10 μM] % inhibition” value is listed as 55.6%. For the same compound, the “B1R antagonism, rat [10 μM] % inhibition” value in test [2] stood at 43%.

With `CN1CCN(C(c2ccccc2)C2CCN(C(=O)CC(NS(=O)(=O)c3ccc4ccccc4c3)c3ccccc3)CC2)CC1` (stereo not drawn) [Example 114, N-(3-(4-((4-methylpiperazin-1-yl)(phenyl)methyl)piperidin-1-yl)-3-oxo-1-phenylpropyl)naphthalene-2-sulfonamide], at human μ-opiate receptor, the inhibition at 1 µM was 40%. The inhibition at 10 µM in test [1] worked out at 93%; in test [2], 71%.

On to `CN1CCN(C(c2cccc(F)c2)C2CCN(C(=O)CC(NS(=O)(=O)c3ccc4ccccc4c3)c3ccccc3)CC2)CC1` (stereo not drawn) [Example 110, N-(3-(4-((3-fluorophenyl)(4-methylpiperazin-1-yl)methyl)piperidin-1-yl)-3-oxo-1-phenylpropyl)naphthalene-2-sulfonamide], for which the inhibition at 1 µM at human μ-opiate receptor was 3%. Moreover, the values for the inhibition at 10 µM in test [1] and in test [2] were 102% and 100%, respectively.

As to `CN1CCN(C(c2ccccc2)C2CCN(C(=O)CC3CCCCN3S(=O)(=O)c3cccc(C(F)(F)F)c3)CC2)CC1` (stereo not drawn) [Example 108, 1-(4-((4-methylpiperazin-1-yl)(phenyl)methyl)piperidin-1-yl)-2-(1-(3-(trifluoromethyl)phenylsulfonyl)piperidin-2-yl)ethanone], on human μ-opiate receptor, the inhibition at 1 µM came out at 6%. For the same compound, the figures for the inhibition at 10 µM in test [1] and in test [2] were 97% and 78%, respectively.

On to `O=C(CC1CCCCN1S(=O)(=O)c1ccc(Cl)c(Cl)c1)N1CCC(C(c2ccccc2)N2CCOCC2)CC1` (stereo not drawn) [Example 89, 2-[1-(3,4-dichloro-benzenesulfonyl)-piperidin-2-yl]-1-[4-(morpholin-4-yl-phenylmethyl)-piperidin-1-yl]-ethanone], for which, at human μ-opiate receptor, the inhibition at 1 µM came to 8.5%. For the same compound, the inhibition at 10 µM in test [1] was determined as 16.4%; in test [2], 26%.

Take `O=C(CC1C(=O)NCCN1S(=O)(=O)c1ccc(Cl)cc1Cl)NCC1CCC(C(c2ccccc2)N2CCOCC2)CC1` (stereo not drawn) [Example 55, 2-[1-(2,4-dichloro-benzenesulfonyl)-3-oxo-piperazin-2-yl]-N-[4-(morpholin-4-yl-phenyl-methyl)-cyclohexylmethyl]-acetamide]: the inhibition at 1 µM at human μ-opiate receptor came out at 24%. Further, the inhibition at 10 µM in test [1] came to 103%; in test [2], 26%.
